Test results as given in article PMC12661400, “Oral bioavailable ITRI-148 degrades androgen receptor variants and overcomes antiandrogen resistance in advanced prostate cancer” (Neoplasia (New York, N.Y.), 2025).
Like-named read-outs stand apart in the source and are kept apart here.

Key:
[1] = In vitro stability in plasma; type: in vitro ADME; details: for Remaining of intact drug (%): 1 μM, incubation up to 4 hours; for half-life at 1 μM: read-out: Plasma Stability t1/2
Description: The stability of ITRI-148 was assessed in plasma across four species: humans, dogs, rats, and mice. ITRI-148 added to pre-warmed plasma at 1 μM was maintained at the designated temperature, and aliquots were collected at 0, 0.5, 1, 2, and 4 hours after incubation. At each time point, 20 μL of the samples was taken to terminate the reaction, followed by LC-MS/MS analysis to determine the remaining compound concentration. Data from duplicated experiments was calculated and presented as mean ± SD.

[2] = Repeated-dose toxicity study: serum clinical chemistry; type: in vivo, Sprague-Dawley rats; details: rat serum
Description: (§1) Repeated-dose toxicity and toxicokinetic studies
Repeated-dose oral toxicity study and toxicokinetic (TK) profiling was conducted in Sprague-Dawley rats. ITRI-148 was administered once daily using oral gavage at doses of 100, 300, 600, and 1000 mg/kg/day for 7 consecutive days, followed by a 7-day recovery period. Each dose group comprised 3 animals designated for toxicokinetic (TK) analysis and 6 animals for dose-range finding (DRF) evaluation. Clinical observations, body weights, and food consumption were monitored daily throughout the dosing and recovery periods. […]
All samples were analyzed in duplicate. Hematology and serum clinical chemistry analyses were performed on Day 7 (end of dosing) and Day 14 (end of recovery). […]
(§2) All procedures were conducted in compliance with institutional animal care and use guidelines. […]
(§3) Targeting androgen receptor and the variants by an orally bioavailable
(§4) Proteolysis Targeting Chimeras compound in castration resistant prostate cancer

[3] = Toxicokinetic profiling in rats; type: in vivo; details: Sprague-Dawley, rat, plasma, po; for AUC: read-out: AUC24
Description: as §1
Repeated-dose oral toxicity study and toxicokinetic (TK) profiling was conducted in Sprague-Dawley rats. ITRI-148 was administered once daily using oral gavage at doses of 100, 300, 600, and 1000 mg/kg/day for 7 consecutive days, followed by a 7-day recovery period. Each dose group comprised 3 animals designated for toxicokinetic (TK) analysis and 6 animals for dose-range finding (DRF) evaluation. Clinical observations, body weights, and food consumption were monitored daily throughout the dosing and recovery periods. After the first (Day 0) and last (Day 6) dosing, serial blood samples were collected at the pose-dose time points of 0.5, 1, 2, 4, 7, 24, 48 and 72 hours for TK profiling analysis. Plasma concentrations of ITRI-148 were quantified using a validated LC-MS/MS method. Analysis was performed using a Sciex QTrap 4000 mass spectrometer coupled with a Shimadzu LC system. The chromatographic separation was achieved on a C18 reverse-phase column with a gradient elution of acetonitrile and 0.1% formic acid in water. The lower limit of quantification (LLOQ) […]
was 5 ng/mL. All samples were analyzed in duplicate. […]
as §2, §3, §4

[4] = Metabolic stability in liver microsomes; type: in vitro ADME; details: for Remaining of intact drug (%): 1 μM, incubation up to 60 minutes; for half-life at 1 μM: pH 7.4, read-out: Plasma Stability t1/2 (microsome panel)
Description: The metabolic stability of all PROTAC compounds in the screening phase (Table 1) was evaluated using mouse liver microsomes. Incubations were performed at 37 °C in phosphate buffer (pH 7.4) containing NADPH (1 mM), 0.5 mg/mL microsomal protein and 1 μM ITRI-148 (0.25 % DMSO) for 0, 5, 20, or 30 minutes, followed by quenching with acetonitrile (1:3, v/v) for HPLC analysis. To evaluate the species-specific metabolism of ITRI-148, its stability was assessed in liver microsomes from human, dog, rat, and mouse using same incubation conditions as above, with the time extending to 0, 15, 30, 45, and 60 minutes, followed by acetonitrile quenching (1:10) and LC-MS/MS analysis.

CWR22Rv1 cell = CWR22Rv1 cell viability after 3 days of 10 μM compound (linker screen); type: cell-based; details: 72 h, CWR22Rv1, 10 μM compound
[5] = PO 100 mg/kg/day 7 days, Day 14 (recovery)
[6] = PO 300 mg/kg/day 7 days, Day 14 (recovery)
[7] = PO 600 mg/kg/day 7 days, Day 14 (recovery)
[8] = PO 1000 mg/kg/day 7 days, Day 7
[9] = PO 1000 mg/kg/day 7 days, Day 14 (recovery)
[10] = 100 mg/kg, 7-times repeated dosing 100 mg/kg
[11] = 100 mg/kg, single dosing 100 mg/kg
[12] = 300 mg/kg, 7-times repeated dosing 300 mg/kg
[13] = 300 mg/kg, single dosing 300 mg/kg
[14] = 600 mg/kg, 7-times repeated dosing 600 mg/kg
[15] = 600 mg/kg, single dosing 600 mg/kg
[16] = 1000 mg/kg, 7-times repeated dosing 1000 mg/kg
[17] = 1000 mg/kg, single dosing 1000 mg/kg

## O=C1CCC(N2C(=O)c3cccc(NCC(=O)N4CCC(N5CCC(C#Cc6ccc(C7CCN(C8=Nn9c(nnc9C(F)(F)F)CC8)CC7)cc6)CC5)CC4)c3C2=O)C(=O)N1 (stereo not drawn) [ITRI-148]
[1]; dog plasma
  Remaining of intact drug (%): 79.4 ± 0.6%
  half-life at 1 μM: > 4 h
[1]; human plasma
  Remaining of intact drug (%): 86.9 ± 5.2%
  half-life at 1 μM: > 4 h
[1]; rat plasma
  Remaining of intact drug (%): 62.1 ± 5.8%
  half-life at 1 μM: > 4 h
[2]; PO 100 mg/kg/day 7 days, Day 7
  ALT: 102.3 ± 40.6 U/L
  AST: 188.7 ± 59 U/L
  BUN: 17.73 ± 2.8 mg/dL
  CRE: 0.63 ± 0.06 mg/dL
[2]; [5]
  ALT: 84.3 ± 31.6 U/L
  AST: 136.7 ± 10.4 U/L
  BUN: 13.23 ± 1.12 mg/dL
  CRE: 0.4 ± 0.1 mg/dL
[2]; PO 300 mg/kg/day 7 days, Day 7
  ALT: 85.3 ± 10 U/L
  AST: 177 ± 37.4 U/L
  BUN: 20.53 ± 2.06 mg/dL
  CRE: 0.63 ± 0.06 mg/dL
[2]; [6]
  ALT: 60.7 ± 7.1 U/L
  AST: 122 ± 5.3 U/L
  BUN: 10.9 ± 1.13 mg/dL
  CRE: 0.33 ± 0.06 mg/dL
[2]; PO 600 mg/kg/day 7 days, Day 7
  ALT: 76.7 ± 2.1 U/L
  AST: 196 ± 66 U/L
  BUN: 21.8 ± 1.81 mg/dL
  CRE: 0.57 ± 0.06 mg/dL
[2]; [7]
  ALT: 69.3 ± 11.5 U/L
  AST: 170 ± 41.7 U/L
  BUN: 13.03 ± 0.83 mg/dL
  CRE: 0.47 ± 0.06 mg/dL
[2]; [8]
  ALT: 68 ± 15.4 U/L
  AST: 132.7 ± 14.5 U/L
  BUN: 16.77 ± 2.32 mg/dL
  CRE: 0.57 ± 0.06 mg/dL
[2]; [9]
  ALT: 94.3 ± 41.2 U/L
  AST: 150.3 ± 43 U/L
  BUN: 16.23 ± 4.71 mg/dL
  CRE: 0.37 ± 0.06 mg/dL
[3]; [10]
  AUC(0-t): 8750 ng·h/mL
  Cmax: 561 ± 62.1 ng/mL
  AUC: 8330 ng·h/mL
[3]; [11]
  AUC(0-t): 9300 ng·h/mL
  Cmax: 466 ± 13.6 ng/mL
  AUC: 7670 ng·h/mL
[3]; [12]
  AUC(0-t): 20500 ng·h/mL
  Cmax: 1050 ng/mL
  AUC: 17000 ng·h/mL
[3]; [13]
  AUC(0-t): 20100 ng·h/mL
  Cmax: 659 ± 184 ng/mL
  AUC: 13000 ng·h/mL
[3]; [14]
  AUC(0-t): 35200 ng·h/mL
  Cmax: 1440 ng/mL
  AUC: 25200 ng·h/mL
[3]; [15]
  AUC(0-t): 27100 ng·h/mL
  Cmax: 914 ± 296 ng/mL
  AUC: 15100 ng·h/mL
[3]; [16]
  AUC(0-t): 56000 ng·h/mL
  Cmax: 1910 ng/mL
  AUC: 36600 ng·h/mL
[3]; [17]
  AUC(0-t): 40400 ng·h/mL
  Cmax: 1000 ng/mL
  AUC: 17400 ng·h/mL
[4]; dog liver microsomes
  Remaining of intact drug (%): 88.3 ± 4.3%
  half-life at 1 μM: > 1 h
[4]; human liver microsomes
  Remaining of intact drug (%): 85.9 ± 2.2%
  half-life at 1 μM: > 1 h
[4]; rat liver microsomes
  half-life at 1 μM: > 1 h
  Remaining of intact drug (%): 75.3 ± 1.2%
CWR22Rv1 cell
  viability at 10 µM: 1.71%
